# Source: patent US20230293614A1, “COMPOSITIONS AND METHODS OF TREATING UPS-ASSOCIATED DISEASES” (Board of Supervisors of Louisiana State University and …, priority 2020, published 2023)
# Experiment: MTT cellular viability assay, MM.1S
# Format: cell-based
# Settings: human, MM.1S cells, read-out: percentage of viable cells
# Description: The effect of PMI-5011 and bioactive compounds on the viability of cells was tested using a standard colorimetric MTT assay. The MTT Cell Proliferation Assay Kit was purchased from VWR, Radnor, Pa. MM.1S and OPM2 cells were treated with 10 μg/mL of PMI-5011 and 1, 10, and 30 μg/mL of DMC-1, DMC-2, KOE and davidigenin and plated at a density of 10^6 cells/mL in a 96-well plate with each well containing 250 μL of the sample. The plated cells were then incubated at 37° C. for 16 h. 10 μg/mL for PMI-5011 and a 16-h treatment period was used in this study based on previous findings by Yu et al.^24 Parallel plates were prepared for positive and negative solvent vehicle control with the same volume of DMSO and ethanol as for the treated cells. On the day of the experiment, the 96-well plates were centrifuged at 1000×g at 4° C. for 5 min in a microplate compatible centrifuge. The media was discarded and 50 μL of serum-free media and 50 μL of the MTT reagent were added into each well. For a background control, 50 μL of the MTT reagent was added into a well containing media only (no cells). The plate was incubated at 37° C. for 3 h in the dark. After incubation, 150 μL of the MTT solvent was added into each well. The plate was wrapped in a foil and placed on an orbital shaker for 15 min. Finally, the absorbance was measured at λex=544 nm and λem=590 nm using a Wallac 1420 VICTOR2 multilabel HTS counter fluorometry (Perkin Elmer (Waltham, Mass.). The percentage viable cells was obtained by Eq. 1.
# % Viable Cells=S-N/C-N×100 (Eq. 1)
# Where, S denotes raw absorbance values from samples, N denotes average absorbance value of the background control and C denotes the highest average absorbance value of positive vehicle control. The obtained percentage cytotoxicity values were then statistically analyzed for their significance. Each data point represents triplicate data points from duplicate experiments. The effect of PMI-5011 and the selected bioactive compounds on C2C12 cell viability has previously been reported.^24
structure (smiles),measurement,setting,value
"COc1ccc(CCC(=O)c2ccc(O)cc2O)cc1 [DMC-2, 1-(2,4-dihydroxyphenyl)-3-(4-methoxyphenyl)propan-1-one]","viability at 16 h, 1 μg/mL",1 μg/mL,~100%
same,"viability at 16 h, 30 μg/mL",30 μg/mL,~65%
